Read-outs that look alike come from different tables or passages of the source.
Assays:
[1] = tested on: AR2 cells (HepG2-AR2)
Method: (§1) For antagonist mode and cytotoxicity data, well-level normalized response (resp) was calculated as: resp=100 * RLU−bval/pval−bval where pval is the median RLU value of the MEC positive control wells (minimum four wells).

[2] = tested on: AR2 cells (HepG2-AR2); assay: Alamar Blue (resazurin) post hoc cell viability / cytotoxicity assay in AR2 cells; details: spid Viability, sheet antagonist_fits; for hill_tp (Hill model top): 0 where win_model is Constant
Method: as §1

[3] = tested on: AR; design: method as in Kleinstreuer et al., 2017; details: 2017, cited from earlier work; for Agonist reference: AR agonist reference class ref Kleinstreuer et al.; for Antagonist reference: AR antagonist reference class ref Kleinstreuer et al.
[4] = target: T1, human AR (Homo sapiens, UniProt P10275); assay: AR2 assay, agonist mode: ligand-dependent AR homodimerization (NanoBiT luciferase complementation) in stable HepG2-AR2 cells; format: cell-based; details: sheet agonist_fits; for hill_tp: Hill model top (efficacy), 0 given where win_model is Constant; for max_med: maximum median response; for win_model: winning concentration-response model (Constant, Hill, Gain-Loss);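 for hill tp: Log2 fold change of luminescence over DMSO vehicle wells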;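 for max med: Log2 fold change of luminescence over DMSO vehicle wells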
T1 sequence (P10275 1-920) 1: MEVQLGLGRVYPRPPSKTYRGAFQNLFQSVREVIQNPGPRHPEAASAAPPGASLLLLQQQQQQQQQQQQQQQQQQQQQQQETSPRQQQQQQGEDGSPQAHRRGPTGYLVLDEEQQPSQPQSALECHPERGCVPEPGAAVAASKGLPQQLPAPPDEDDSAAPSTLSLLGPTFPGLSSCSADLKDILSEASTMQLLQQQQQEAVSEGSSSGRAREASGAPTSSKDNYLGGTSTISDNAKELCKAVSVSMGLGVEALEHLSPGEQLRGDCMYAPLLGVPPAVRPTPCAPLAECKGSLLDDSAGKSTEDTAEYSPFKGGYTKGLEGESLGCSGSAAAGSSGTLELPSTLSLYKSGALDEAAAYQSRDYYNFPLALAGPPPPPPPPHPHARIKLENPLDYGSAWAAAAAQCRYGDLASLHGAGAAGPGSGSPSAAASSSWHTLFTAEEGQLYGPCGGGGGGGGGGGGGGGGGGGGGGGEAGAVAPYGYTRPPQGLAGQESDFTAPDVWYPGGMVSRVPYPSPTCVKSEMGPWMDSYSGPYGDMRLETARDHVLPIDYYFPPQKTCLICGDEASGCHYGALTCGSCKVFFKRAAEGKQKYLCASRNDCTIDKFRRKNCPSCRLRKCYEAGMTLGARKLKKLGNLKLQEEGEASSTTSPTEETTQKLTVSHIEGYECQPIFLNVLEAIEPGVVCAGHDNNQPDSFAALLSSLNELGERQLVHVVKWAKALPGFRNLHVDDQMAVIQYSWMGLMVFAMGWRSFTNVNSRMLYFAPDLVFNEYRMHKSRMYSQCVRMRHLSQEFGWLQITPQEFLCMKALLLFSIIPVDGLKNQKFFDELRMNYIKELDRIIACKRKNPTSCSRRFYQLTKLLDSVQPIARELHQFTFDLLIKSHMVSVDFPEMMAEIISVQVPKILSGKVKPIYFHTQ
T1 sequence (P10275 1-920) 2: T1 sequence (P10275 1-920) 1

[5] = target: T1, human AR; assay: AR2 assay, antagonist mode: disruption of R1881 (10 nM)-induced AR homodimerization in HepG2-AR2 cells; format: cell-based; details: spid AR_antagonist, sheet antagonist_fits; for hill_gw (Hill model slope) / hill_tp (Hill model top): 0 where win_model is Constant
[6] = target: T1, human AR; assay: cell-based; design: species or system AR2 cells (HepG2-AR2); NanoLuc complementation AR homodimerization, antagonist mode, loss of agonist-induced luminescence, AC50 by Hill fit; details: hill_ga

Compound | hill_ga (Hill model log AC50) [1] | max_med (maximum median response) [2] | hill_tp (Hill model top) [2] | further results
CC(C)(C)CC(C)(C)c1ccc(O)cc1 [4-(1,1,3,3-Tetramethylbutyl)phenol] | 1.5 | 99.7722 | 100.987 | –
CC(C)(c1ccccc1)c1ccc(O)cc1 [4-Cumylphenol] | 1.81 | 99.676 | – | –
Nc1nc[nH]n1 [Amitrole] | 1.008 | 20.9539 | 26.1033 | –
O=c1cc(-c2ccc(O)cc2)oc2cc(O)cc(O)c12 [Apigenin] | 1.291 | 44.3137 | 57.4844 | –
CCNc1nc(Cl)nc(NC(C)C)n1 [Atrazine] | 1.242 | 11.6649 | 7.792 | Agonist reference [3]: Inactive; Antagonist reference [3]: Inactive; Agonist reference ([3]; Supplementary Table S1): Inactive; Antagonist reference ([3]; Supplementary Table S1): Inactive
Oc1ccc(C(c2ccc(O)cc2)(C(F)(F)F)C(F)(F)F)cc1 [Bisphenol AF] | 1.485 | 99.8528 | 100.2 | –
CCC(C)(c1ccc(O)cc1)c1ccc(O)cc1 [Bisphenol B] | 1.739 | 49.2471 | 49.223 | –
CNC(=O)Oc1cccc2c1OC(C)(C)C2 [Carbofuran] | – | 23.3178 | 15.7111 | hill_tp [4]: 0; max_med [4]: 0.1027; win_model [4]: Constant; max_med (maximum median response) [5]: 28.4656; win_model (winning concentration-response model) [5]: Hill; hill_gw (Hill model slope) [5]: 1.516; hill_tp (Hill model top) [5]: 33.2623; AC50 [6]: 44.2 µM
CC1(C)C(C=C(Cl)Cl)C1C(=O)OC(C#N)c1ccc(F)c(Oc2ccccc2)c1 (stereo not drawn) [Cyfluthrin] | 0 | 9.8887 | 0 | Agonist reference [3]: Inactive
CC1(C)C(C=C(Cl)Cl)C1C(=O)OC(C#N)c1cccc(Oc2ccccc2)c1 (stereo not drawn) [Cypermethrin] | 0 | 5.609 | 0 | Agonist reference [3]: Inactive
O=c1c(-c2ccc(O)cc2)coc2cc(O)ccc12 [Daidzein] | – | 12.142 | 8.263 | hill_tp [4]: 0; max_med [4]: 0.1579; win_model [4]: Constant; max_med (maximum median response) [5]: 67.6764; win_model (winning concentration-response model) [5]: Hill; hill_gw (Hill model slope) [5]: 1.585; hill_tp (Hill model top) [5]: 87.2882; Agonist reference ([3]; Supplementary Table S1): Inactive; AC50 ([6]; spid=Bgal, antagonist mode, 10 nM agonist stimulus, 18 h, no CYP expressed): 59.8 µM; AC50 ([6]; spid=No_RNA, antagonist mode, 10 nM agonist stimulus, 18 h, no CYP expressed): 46.5 µM
CCCCOC(=O)c1ccccc1C(=O)OCCCC [Dibutyl phthalate] | 1.084 | 27.2383 | 28.3952 | –
N#Cc1c(Cl)cccc1Cl [Dichlobenil] | 0 | 10.2924 | 0 | –
CCOC(=O)c1ccccc1C(=O)OCC [Diethyl phthalate] | 0.07147 | 22.6345 | 17.9391 | –

Source: article PMC10112521, “High-throughput AR dimerization assay identifies androgen disrupting chemicals and metabolites” (Frontiers in Toxicology, 2023)
